Laboratory results from ChEMBL document CHEMBL1201862, “PubChem BioAssay data set” (2004).
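Compound exposure: 48 hours, 5 concentrations, 96-well plates. GI50 marks 50% less growth.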 Calls of active or inactive are those of the source. No stated cut-off is given here; in the data, active = GI50 up to about 1.1 µM and inactive = higher.

What was measured:
Experiment in all cases: NCI-60 cell line screen, 48 h
BT-549 = system: BT-549
MDA-MB-435 = system: MDA-MB-435
HT-29 = system: HT-29
HCT-15 = system: HCT-15
OVCAR-3 = system: OVCAR-3
T47D = system: T47D
SF-295 = system: SF-295
SNB-19 = system: SNB-19
HCT-116 = system: HCT-116
IGROV-1 = system: IGROV-1
NCI/ADR-RES = system: NCI/ADR-RES
SK-MEL-2 = system: SK-MEL-2
NCI-H522 = system: NCI-H522
Hs-578T = system: Hs-578T
UO-31 = system: UO-31
EKVX = system: EKVX
TK-10 = system: TK-10
PC-3 = system: PC-3
NCI-H23 = system: NCI-H23
XF498 = system: XF498

Compound	GI50 (BT-549)	GI50 (MDA-MB-435)	GI50 (HT-29)	GI50 (HCT-15) [µM]	GI50 (OVCAR-3)	GI50 (T47D)	GI50 (SF-295)	GI50 (SNB-19)	GI50 (HCT-116)	GI50 (IGROV-1)	GI50 (NCI/ADR-RES)	GI50 (SK-MEL-2)	GI50 (NCI-H522)	GI50 (Hs-578T)	GI50 (UO-31)	GI50 (EKVX)	GI50 (TK-10)	GI50 (PC-3)	GI50 (NCI-H23)	GI50 (XF498)
CN(CC(=O)O)Cc1c(O)c(Cl)cc(Cl)c1Cl	75.5 µM (inactive)	74.8 µM (inactive)	33.2 µM (inactive)	21.8	4.07 µM (inactive)	54.1 µM (inactive)	64.9 µM (inactive)	48.4 µM (inactive)	12.5 µM (inactive)	48.1 µM (inactive)	26.8 µM (inactive)	27.2 µM (inactive)	27.8 µM (inactive)	> 100 µM (inactive)	23.2 µM (inactive)	24.2 µM (inactive)	37.8 µM (inactive)	41.4 µM (inactive)	95.3 µM (inactive)	–
CCOC(=O)C1(CC)CCCCC(=O)N1 (stereo not given)	–	–	> 100 µM (inactive)	> 100	> 100 µM (inactive)	–	> 100 µM (inactive)	–	–	> 100 µM (inactive)	–	–	–	–	> 100 µM (inactive)	> 100 µM (inactive)	> 100 µM (inactive)	–	> 100 µM (inactive)	> 100 µM (inactive)
CC1(C)CN=C(Nc2cccc(C(F)(F)F)c2)S1	> 100 µM (inactive)	> 100 µM (inactive)	> 100 µM (inactive)	> 100	> 100 µM (inactive)	> 100 µM (inactive)	> 100 µM (inactive)	> 100 µM (inactive)	> 100 µM (inactive)	> 100 µM (inactive)	> 100 µM (inactive)	> 100 µM (inactive)	> 100 µM (inactive)	> 100 µM (inactive)	> 100 µM (inactive)	> 100 µM (inactive)	> 100 µM (inactive)	> 100 µM (inactive)	> 100 µM (inactive)	–
COc1ccc(S(=O)(=O)NC(CCC(=O)NN)C(=O)NN)cc1 (stereo not given)	> 100 µM (inactive)	> 100 µM (inactive)	> 100 µM (inactive)	> 100	> 100 µM (inactive)	> 100 µM (inactive)	> 100 µM (inactive)	> 100 µM (inactive)	> 100 µM (inactive)	> 100 µM (inactive)	> 100 µM (inactive)	> 100 µM (inactive)	> 100 µM (inactive)	> 100 µM (inactive)	> 100 µM (inactive)	> 100 µM (inactive)	> 100 µM (inactive)	> 100 µM (inactive)	> 100 µM (inactive)	–
Oc1c(/N=N/c2ccccc2)c2ccccc2c2ccc3ccccc3c12	73.8 µM (inactive)	> 100 µM (inactive)	> 100 µM (inactive)	> 100	> 100 µM (inactive)	> 100 µM (inactive)	50.5 µM (inactive)	> 100 µM (inactive)	> 100 µM (inactive)	> 100 µM (inactive)	> 100 µM (inactive)	> 100 µM (inactive)	> 100 µM (inactive)	62.8 µM (inactive)	> 100 µM (inactive)	50.4 µM (inactive)	> 100 µM (inactive)	73.8 µM (inactive)	> 100 µM (inactive)	–
C/C(=C\c1csc(C)n1)[C@@H]1C[C@@H]2O[C@@H]2CCC[C@H](C)[C@H](O)[C@@H](C)C(=O)C(C)(C)[C@@H](O)CC(=O)O1 [EPOTHILONE A]	< 0.0001 µM (active)	< 0.0001 µM (active)	< 0.0001 µM (active)	< 0.0001	< 0.0001 µM (active)	< 0.0001 µM (active)	< 0.0001 µM (active)	< 0.0001 µM (active)	< 0.0001 µM (active)	< 0.0001 µM (active)	0.000113 µM (active)	< 0.0001 µM (active)	< 0.0001 µM (active)	< 0.0001 µM (active)	< 0.0001 µM (active)	< 0.0001 µM (active)	0.0167 µM (active)	< 0.0001 µM (active)	< 0.0001 µM (active)	–
